Measured values taken from patent US20120122840A1, “COMPOUNDS AND THERAPEUTIC USES THEREOF” (Myrexis, Inc., priority 2009, published 2012).

What was measured:
Aurora A [1] = molecular target: T1, Aurora A (Homo sapiens, UniProt O14965); test: Direct target affinity purification (DTAP) from cell lysates; type: binding; conditions: compound coupled to Sepharose beads
T1 sequence (O14965 1-403): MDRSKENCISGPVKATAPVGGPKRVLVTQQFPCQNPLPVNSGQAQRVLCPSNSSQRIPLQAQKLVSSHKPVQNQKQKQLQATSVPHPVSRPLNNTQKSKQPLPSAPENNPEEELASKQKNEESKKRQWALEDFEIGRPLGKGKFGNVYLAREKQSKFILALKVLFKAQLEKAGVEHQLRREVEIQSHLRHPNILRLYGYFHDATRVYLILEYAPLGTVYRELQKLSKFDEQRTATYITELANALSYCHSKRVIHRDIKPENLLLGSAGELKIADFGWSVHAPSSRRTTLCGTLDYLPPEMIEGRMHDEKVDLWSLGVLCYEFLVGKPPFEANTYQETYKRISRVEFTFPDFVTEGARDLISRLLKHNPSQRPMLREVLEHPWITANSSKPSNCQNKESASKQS
Description: (§1) Direct target affinity purification (DTAP) was used to investigate (1) the selectivity of compounds of the invention for TTK, relative to other kinases, and (2) the importance of a specific methyl substituent in providing that selectivity.
(§2) In preparation for DTAP studies, the two compounds depicted above were synthesized with an alkyl-amine linker to allow covalent coupling to epoxy-activated Sepharose 6B beads (GE Healthcare, Piscataway, N.J.). Sepharose beads were swollen and washed with water for 30 min followed by equilibration in coupling buffer (50% dimethylformamide, 50 mM Na2CO3). Beads were pelleted by centrifugation (15 sec at 2000×g) and the supernatant removed by aspiration. An equal volume of coupling buffer containing the linkered test compound was used to resuspend the beads. Compound concentrations in the coupling reaction ranged from 0.1 mM to 12.5 mM. The coupling reactions were incubated at 34° C. for 18 hrs on a rotator mixer. Ethanolamine was added to 1 M for the final 1 hr to quench the coupling reaction. Beads were washed extensively with binding buffer (1 M NaCl, 50 mM Hepes [pH 7.4], 1% Triton X-100, 1 mM EDTA and 1 mM dithiothreitol) to remove residual coupling reagents, and were then stored at 4° C.
(§3) Cellular proteins were prepared by mild sonication in lysis buffer (150 mM NaCl, 50 mM Hepes [pH 7.4], 1% Triton X-100, 1 mM EDTA and 2 mM dithiothrietol containing 1× Halt™ protease and phosphatase inhibitor cocktail [Thermo Fisher Scientific, Rockford, Ill.]). Lysates were centrifuged (20,000×g for 20 min) to remove debris, diluted to a protein concentration of ˜5 mg/ml, divided into aliquots, and stored at −80° C.
(§4) For DTAP reactions, cell lysates (˜0.5 ml per binding reaction) were thawed and the NaCl concentration adjusted to 1 M. Competitor compounds dissolved in DMSO (or a DMSO control) were then added to the lysate and incubated on ice for 5 min. The lysates were centrifuged at 20,000×g for 10 min and the cleared supernatant was transferred to a tube containing 50 μl of coupled beads. The binding reactions were incubated on a rotator mixer at 4° C. for 2 hrs, after which the beads were pelleted by centrifugation and the supernatant removed by aspiration. The beads were washed three times with 20 volumes of binding buffer, 2× with 20 volumes wash buffer (150 mM NaCl, 50 mM Hepes [pH 7.4], 1% Tween 20, 1 mM EDTA, 2 mM dithiothrietol) and finally twice with 10 volumes of 150 mM NaCl, 50 mM Hepes [pH 7.4].
(§5) During the final wash, an aliquot containing 10 μl of beads was transferred to a separate tube and resuspended with 15 μl of 2× SDS/PAGE loading buffer (Invitrogen Corporation, Carlsbad, Calif.) for 5 min at 90° C. The eluted proteins were resolved by electrophoresis on a NuPage 4-12% Bis-Tris Gel (Invitrogen Corporation, Carlsbad, Calif.) and visualized by staining with Ruby Red (Invitrogen Corporation, Carlsbad, Calif.). The remaining beads (40 μl) were processed for analysis by mass spectrometry.

FER [2] = molecular target: T2, FER (Homo sapiens, UniProt P16591); test: as above; type: binding; conditions: compound coupled to Sepharose beads
Description: as §1, §2, §3, §4, §5

JAK1 [3] = molecular target: T3, JAK1 (Homo sapiens, UniProt P23458); test: as above; type: binding; conditions: compound coupled to Sepharose beads
T3 construct: Cellular proteins were prepared by mild sonication in lysis buffer; endogenous in cells
Description: as §1, §2, §3, §4, §5

JNK [4] = molecular target: T4, JNK (Homo sapiens, UniProt P45983); test: as above; type: binding; conditions: compound coupled to Sepharose beads
Description: as §1, §2, §3, §4, §5

TTK = molecular target: T5, TTK (Homo sapiens, UniProt P33981); test: as above; type: binding; conditions: compound coupled to Sepharose beads
T5 sequence (P33981 1-857): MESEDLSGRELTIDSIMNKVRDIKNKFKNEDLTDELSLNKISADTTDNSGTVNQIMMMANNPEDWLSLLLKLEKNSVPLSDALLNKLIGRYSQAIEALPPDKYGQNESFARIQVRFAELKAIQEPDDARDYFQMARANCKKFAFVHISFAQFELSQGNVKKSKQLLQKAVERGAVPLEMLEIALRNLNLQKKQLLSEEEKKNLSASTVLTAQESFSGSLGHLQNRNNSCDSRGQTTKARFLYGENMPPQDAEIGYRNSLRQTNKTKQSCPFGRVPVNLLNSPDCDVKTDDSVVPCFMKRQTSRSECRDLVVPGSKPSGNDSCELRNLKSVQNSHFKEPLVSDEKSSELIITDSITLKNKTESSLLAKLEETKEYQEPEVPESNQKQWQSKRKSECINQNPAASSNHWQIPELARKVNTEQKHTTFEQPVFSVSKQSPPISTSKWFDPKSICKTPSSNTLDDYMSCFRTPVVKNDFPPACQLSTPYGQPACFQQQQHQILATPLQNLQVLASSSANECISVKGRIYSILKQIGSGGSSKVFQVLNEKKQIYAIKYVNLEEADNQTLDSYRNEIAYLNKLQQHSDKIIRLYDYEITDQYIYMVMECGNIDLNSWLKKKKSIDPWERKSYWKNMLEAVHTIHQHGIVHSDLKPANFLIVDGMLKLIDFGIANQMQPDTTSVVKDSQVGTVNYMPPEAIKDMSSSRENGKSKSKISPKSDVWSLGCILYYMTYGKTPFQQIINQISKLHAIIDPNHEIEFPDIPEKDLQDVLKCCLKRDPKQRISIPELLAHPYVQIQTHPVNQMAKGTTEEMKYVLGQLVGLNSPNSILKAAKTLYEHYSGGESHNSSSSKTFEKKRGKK
Description: as §1, §2, §3, §4, §5

Aurora A [5] = molecular target: T1, Aurora A; test: In vitro binding assays
FER [6] = molecular target: T2, FER; test: In vitro binding assays
JNK [7] = molecular target: T4, JNK; test: In vitro binding assays
JAK1 [8] = molecular target: T3, JAK1; test: In vitro binding assays

T4 sequence (P45983 whole entry): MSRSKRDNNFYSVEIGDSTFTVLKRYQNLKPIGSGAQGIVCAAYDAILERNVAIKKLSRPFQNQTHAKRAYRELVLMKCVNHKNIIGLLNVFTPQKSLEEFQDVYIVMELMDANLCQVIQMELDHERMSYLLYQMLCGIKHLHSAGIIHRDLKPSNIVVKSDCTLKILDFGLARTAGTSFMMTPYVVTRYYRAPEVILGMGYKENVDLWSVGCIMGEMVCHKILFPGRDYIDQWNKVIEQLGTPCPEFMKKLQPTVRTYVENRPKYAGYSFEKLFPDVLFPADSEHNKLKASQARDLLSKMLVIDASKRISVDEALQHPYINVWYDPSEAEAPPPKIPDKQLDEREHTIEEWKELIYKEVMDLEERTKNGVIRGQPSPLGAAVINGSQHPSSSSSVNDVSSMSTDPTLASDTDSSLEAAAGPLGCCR
T3 sequence (P23458 whole entry, species assumed): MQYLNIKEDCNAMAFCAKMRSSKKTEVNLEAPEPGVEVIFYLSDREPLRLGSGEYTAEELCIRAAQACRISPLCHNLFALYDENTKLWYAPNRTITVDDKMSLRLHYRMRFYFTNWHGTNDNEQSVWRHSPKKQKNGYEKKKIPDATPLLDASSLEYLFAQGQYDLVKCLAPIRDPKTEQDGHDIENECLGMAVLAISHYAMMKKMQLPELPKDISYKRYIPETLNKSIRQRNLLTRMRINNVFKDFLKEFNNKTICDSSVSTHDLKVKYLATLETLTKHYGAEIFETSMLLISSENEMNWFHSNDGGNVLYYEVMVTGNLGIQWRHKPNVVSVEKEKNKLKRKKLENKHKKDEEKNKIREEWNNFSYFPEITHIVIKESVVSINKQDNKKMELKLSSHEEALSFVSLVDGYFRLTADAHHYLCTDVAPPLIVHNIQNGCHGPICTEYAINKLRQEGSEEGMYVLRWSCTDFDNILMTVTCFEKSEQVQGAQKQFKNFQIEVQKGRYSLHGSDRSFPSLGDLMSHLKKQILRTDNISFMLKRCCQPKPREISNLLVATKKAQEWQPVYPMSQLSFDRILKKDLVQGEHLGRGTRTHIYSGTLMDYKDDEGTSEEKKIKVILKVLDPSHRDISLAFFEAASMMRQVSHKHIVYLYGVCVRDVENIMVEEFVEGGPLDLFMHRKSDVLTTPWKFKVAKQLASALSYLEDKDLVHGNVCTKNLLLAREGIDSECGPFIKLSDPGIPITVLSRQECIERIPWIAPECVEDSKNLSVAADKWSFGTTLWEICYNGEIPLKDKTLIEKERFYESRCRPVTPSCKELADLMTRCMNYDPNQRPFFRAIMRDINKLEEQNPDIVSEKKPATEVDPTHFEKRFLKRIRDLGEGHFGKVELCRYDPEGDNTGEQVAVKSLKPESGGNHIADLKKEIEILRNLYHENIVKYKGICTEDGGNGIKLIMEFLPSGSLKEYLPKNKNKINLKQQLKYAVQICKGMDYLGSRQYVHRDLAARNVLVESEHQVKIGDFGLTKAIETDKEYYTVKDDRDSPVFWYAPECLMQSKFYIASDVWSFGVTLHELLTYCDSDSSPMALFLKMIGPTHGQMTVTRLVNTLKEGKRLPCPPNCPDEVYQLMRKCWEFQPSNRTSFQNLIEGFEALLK
T2 sequence (P16591 whole entry, species assumed): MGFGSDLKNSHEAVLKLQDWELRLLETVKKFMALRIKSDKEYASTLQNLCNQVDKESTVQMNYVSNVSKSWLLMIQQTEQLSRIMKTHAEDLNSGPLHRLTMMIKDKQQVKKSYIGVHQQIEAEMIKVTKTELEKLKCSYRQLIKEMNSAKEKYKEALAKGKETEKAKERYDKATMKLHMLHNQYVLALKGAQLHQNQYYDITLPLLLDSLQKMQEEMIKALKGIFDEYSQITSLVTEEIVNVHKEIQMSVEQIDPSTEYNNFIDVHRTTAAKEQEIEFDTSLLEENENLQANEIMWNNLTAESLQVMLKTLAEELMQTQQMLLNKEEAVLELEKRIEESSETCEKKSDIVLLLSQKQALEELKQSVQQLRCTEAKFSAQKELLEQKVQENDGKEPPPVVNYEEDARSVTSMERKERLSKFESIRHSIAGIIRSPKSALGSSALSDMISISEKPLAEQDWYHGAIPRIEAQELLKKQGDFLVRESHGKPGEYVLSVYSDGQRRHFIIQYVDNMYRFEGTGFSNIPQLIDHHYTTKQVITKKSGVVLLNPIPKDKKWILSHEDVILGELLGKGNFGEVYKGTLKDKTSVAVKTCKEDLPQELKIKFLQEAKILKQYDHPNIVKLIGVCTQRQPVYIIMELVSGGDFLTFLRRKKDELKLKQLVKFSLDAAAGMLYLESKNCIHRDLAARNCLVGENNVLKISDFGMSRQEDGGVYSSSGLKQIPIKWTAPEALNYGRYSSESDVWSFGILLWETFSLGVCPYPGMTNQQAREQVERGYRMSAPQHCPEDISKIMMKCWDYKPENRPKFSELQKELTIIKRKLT

binding of Aurora A from cell lysates to bead-coupled compound (Aurora A [1]): found to bind | binding of FER from cell lysates to bead-coupled compound (FER [2]): found to bind | binding of JAK1 from cell lysates to bead-coupled compound (JAK1 [3]): found to bind | binding of JNK from cell lysates to bead-coupled compound (JNK [4]): found to bind | binding of TTK from cellular lysates to bead-coupled compound (TTK): high affinity | IC50 (Aurora A [5]): 420 nM | IC50 (FER [6]): 15 nM | IC50 (JNK [7]): 57 nM | IC50 (JAK1 [8]): 320 nM
SMILES: NCCCOc1ccc(Nc2nc(NC3CCCCC3)c3nc[nH]c3n2)cc1 [N2-[4-(3-aminopropoxy)phenyl]-N-6-cyclohexyl-9H-purine-2,6-diamine]
